The values below are quoted from earlier work in patent publication US6187343A, “Proceeding for the preparation of the prolonged action granule compound containing 4-nitro-2-phenoxymethanesulfonanilide” (priority 1997, dated 2001).

The conditions of this series: in vivo.

Molecules are shown by their SMILES.

Take `CS(=O)(=O)Nc1ccc([N+](=O)[O-])cc1Oc1ccccc1` [NIMESULIDE, 4-nitro-2-phenoxymethanesulfonanilide]: the adverse effects result was “adverse effects of the digestive type”.
